According to patent publication US20070129385A1, “Amorphous valganciclovir hydrochloride” (priority 2003, published 2007):
Structures can show the parent of a compound that is named as a salt.

Assays:
[1] = storage stability of the solid amorphous form; format: physicochemical
Excerpt: Solid amorphous valganciclovir hydrochloride is provided herein. The amorphous valganciclovir hydrochloride can be produced with no detectable crystalline valganchloride hydrochloride present, based on XRD investigations having a limit of detection of 0.5%.
The mixture of amorphous valganciclovir hydrochloride containing some crystalline form is then substantially converted to an amorphous form by dissolving it in water (optionally containing an organic solvent) followed by spray-drying of the solution as described earlier. Crystalline formation at this stage can be inhibited by storage under nitrogen in the strict absence of atmosphere or other water. The amorphous material has been found stable for up to at least 3 months with proper storage.

[2] = administered orally; cited from earlier work
human cytomegalovirus = details: in vitro and in vivo; cited from earlier work

SMILES	time for which the material was found stable ([1]; proper storage (under nitrogen, absence of water))	stability on storage ([1]; stored under controlled humidity conditions)	stability profile compared with the crystalline form ([1]; versus existing crystalline form)	rate of absorption [2]	replication of human cytomegalovirus (human cytomegalovirus)
CC(C)[C@@H](N)C(=O)OCC(CO)OCn1cnc2c(O)nc(N)nc21 (stereo partly drawn) [Amorphous valganciclovir hydrochloride, L-valinate ester of 2-(2-amino-1,6-dihydro-6-oxo-purin-9-yl)-methoxy-3-hydroxy-1-propanyl hydrochloride salt]	at least 3 months	stable when stored under controlled humidity conditions	superior stability profile to the existing crystalline form		
Nc1nc(O)c2ncn(COC(CO)CO)c2n1 [Ganciclovir]				very low rate of absorption	inhibits replication of human cytomegalovirus in vitro and in vivo
